We go through 1 molecule from paper PMC11050067, “Development of a Novel, Potent, and Selective Sialyltransferase Inhibitor for Suppressing Cancer Metastasis” (International Journal of Molecular Sciences, 2024).

In one experiment the target is T1, ST3GAL3 (Homo sapiens, UniProt Q11203).
T1 construct: recombinant Human ST3GAL3 (R&D systems #10554-GT)
T1 sequence (Q11203 1-375): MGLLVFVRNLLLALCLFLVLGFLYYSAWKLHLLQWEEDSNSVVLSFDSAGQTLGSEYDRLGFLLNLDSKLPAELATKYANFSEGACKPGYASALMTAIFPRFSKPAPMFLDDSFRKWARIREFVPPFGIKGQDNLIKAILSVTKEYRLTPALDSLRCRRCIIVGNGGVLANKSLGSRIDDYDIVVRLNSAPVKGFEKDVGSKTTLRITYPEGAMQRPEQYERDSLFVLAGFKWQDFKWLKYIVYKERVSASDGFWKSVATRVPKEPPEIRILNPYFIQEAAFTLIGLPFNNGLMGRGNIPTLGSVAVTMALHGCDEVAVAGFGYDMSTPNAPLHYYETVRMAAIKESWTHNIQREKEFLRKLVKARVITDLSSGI
Description: phosphatase-coupled sialyltransferase activity assay (EA002 kit) with recombinant enzyme. Type of experiment: biochemical.

A further experiment concerns the target T2, ST6GAL1 (Homo sapiens, UniProt P15907).
T2 construct: recombinant Human ST6GAL1 (R&D systems #7620-GT)
T2 sequence (P15907 27-406): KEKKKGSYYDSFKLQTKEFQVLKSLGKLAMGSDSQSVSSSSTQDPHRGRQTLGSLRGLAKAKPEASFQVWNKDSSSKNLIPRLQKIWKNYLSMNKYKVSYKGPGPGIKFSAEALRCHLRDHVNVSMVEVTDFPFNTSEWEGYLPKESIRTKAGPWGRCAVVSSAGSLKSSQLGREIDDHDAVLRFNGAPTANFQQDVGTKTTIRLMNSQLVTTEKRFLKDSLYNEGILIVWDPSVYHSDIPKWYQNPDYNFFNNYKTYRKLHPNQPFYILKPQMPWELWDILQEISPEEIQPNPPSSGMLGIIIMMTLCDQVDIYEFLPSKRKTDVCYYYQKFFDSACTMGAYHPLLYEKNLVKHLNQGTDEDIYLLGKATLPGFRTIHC
Kind of experiment: HPLC assay of sialylation of Galβ[…]-4GlcNAc with CMP-Neu5Ac by recombinant enzyme. The format is biochemical.

Consider `C[C@H](CCC(=O)OCCOCCOCCN=[N+]=[N-])C1CCC2C3CC[C@@H]4C[C@H](NC(=O)[C@H](CC(=O)O)Nc5ccc([N+](=O)[O-])c6nonc56)CC[C@]4(C)C3CC[C@@]21C` (some centres unmarked) [FCW393], for which the half-inhibitory concentration (IC50) (usually the concentration that inhibits the measured activity by half) at ST3GAL3 stood at 9.45 ± 0.11 µM; on ST6GAL1, 7.76 ± 0.06 µM.
